# Experimental data as given in patent publication US20160318987A1 (MEDIMMUNE LIMITED, priority 2013, published 2016).
# Assays:
# Format in all cases: cell-based
# Settings in all cases: n = 2
# hGLP-1R = target: T1, hGLP-1R (Homo sapiens, UniProt P43220); test: cAMP functional assay, cells expressing human GLP-1 receptor (primary assay)
# T1 construct: expressed in transfected cells
# hGluc-R = target: T2, hGluc-R (Homo sapiens, UniProt P47871); test: cAMP functional assay, cells expressing human glucagon receptor (primary assay)
# T2 construct: expressed in transfected cells
# Description: The biological activities/receptor potencies of the synthetic GLP-1 peptides described herein are suitably tested for biological activity, e.g., stimulation of one or more cellular receptor responses. Stable cell lines expressing human, mouse, rat, or dog GLP-1 receptor (GLP-1R), glucagon receptor (GCGR) or glucose-dependent insulinotropic peptide (gastric inhibitory polypeptide) receptor (GIPR) are generated in HEK293 cells or CHO cells by standard methods.
# cAMP assays were performed using “assay buffer”: Assay Buffer: 0.1% BSA (Sigma #A3059) in HBSS (Sigma #H8264) with 25 mM HEPES, pH 7.4 and containing 0.5 mM IBMX (Sigma #17018).
# Low protein binding 384-well plates (Greiner #781280) are used to perform eleven 1 in 5 serial dilutions of test samples which are made in assay buffer. All sample dilutions are made in duplicate.
# A frozen cryo-vial of cells expressing the receptor of interest is thawed rapidly in a water-bath, transferred to pre-warmed assay buffer and spun at 240× g for 5 minutes. Cells are re-suspended in assay buffer at a batch-dependent optimized concentration (e.g. hGCGR cells at 2×10^5 cells/ml, hGLP-1R and hGIPR cells at 1×10^5 cells /ml).
# From the dilution plate, a 5 μL replica is stamped onto a black shallow-well u-bottom 384-well plate (Corning #3676). To this, 5 μL cell suspension is added and the plates incubated at room temperature for 30 minutes.
# cAMP levels are measured using a commercially available cAMP dynamic 2 HTRF kit (Cisbio, Cat #62AM4PEJ), following the two step protocol as per manufacturer's recommendations. In brief; anti-cAMP cryptate (donor fluorophore) and cAMP-d2 (acceptor fluorophore) are made up separately by diluting each 1/20 in conjugate & lysis buffer provided in the kit. 5 μL anti-cAMP cryptate is added to all wells of the assay plate, and 5 μL cAMP-d2 is added to all wells except non-specific binding (NSB) wells, to which conjugate and lysis buffer are added. Plates are incubated at room temperature for one hour and then read on an Envision (Perkin Elmer) using excitation wavelength of 320 nm and emission wavelengths of 620 nm & 665 nm. EC50 values of the synthetic peptides determined in cAMP assays are then determined.
# hGIP-R = target: T3, hGIP-R (Homo sapiens, UniProt P48546); test: cAMP functional assay, cells expressing human GIP receptor (primary assay)
# T3 construct: expressed in transfected cells
# T3 sequence (P48546 22-466): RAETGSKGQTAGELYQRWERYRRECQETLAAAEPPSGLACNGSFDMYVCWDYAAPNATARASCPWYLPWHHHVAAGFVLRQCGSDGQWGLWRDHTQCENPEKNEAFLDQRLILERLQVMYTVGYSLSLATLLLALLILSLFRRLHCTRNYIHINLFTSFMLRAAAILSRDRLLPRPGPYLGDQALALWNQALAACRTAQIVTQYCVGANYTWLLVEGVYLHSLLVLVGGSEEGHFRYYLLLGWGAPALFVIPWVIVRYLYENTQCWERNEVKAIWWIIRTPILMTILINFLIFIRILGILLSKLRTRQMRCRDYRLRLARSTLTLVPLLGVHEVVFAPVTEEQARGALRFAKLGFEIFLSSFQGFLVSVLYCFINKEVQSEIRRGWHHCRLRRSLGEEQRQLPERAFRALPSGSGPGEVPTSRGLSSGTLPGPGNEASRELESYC
# T2 sequence (P47871 26-477): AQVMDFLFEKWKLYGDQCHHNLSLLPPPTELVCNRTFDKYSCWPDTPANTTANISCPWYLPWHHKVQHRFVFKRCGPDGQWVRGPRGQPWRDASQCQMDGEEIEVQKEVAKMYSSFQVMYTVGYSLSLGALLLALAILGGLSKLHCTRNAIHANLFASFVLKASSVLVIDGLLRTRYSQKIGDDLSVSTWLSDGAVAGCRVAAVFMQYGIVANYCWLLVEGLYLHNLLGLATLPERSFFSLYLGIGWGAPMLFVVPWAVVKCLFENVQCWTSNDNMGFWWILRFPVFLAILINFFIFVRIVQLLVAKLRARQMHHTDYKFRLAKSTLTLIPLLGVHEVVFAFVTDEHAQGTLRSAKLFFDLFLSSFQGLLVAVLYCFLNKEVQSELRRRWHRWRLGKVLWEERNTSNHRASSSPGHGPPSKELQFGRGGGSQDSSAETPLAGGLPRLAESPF
# T1 sequence (P43220 24-463): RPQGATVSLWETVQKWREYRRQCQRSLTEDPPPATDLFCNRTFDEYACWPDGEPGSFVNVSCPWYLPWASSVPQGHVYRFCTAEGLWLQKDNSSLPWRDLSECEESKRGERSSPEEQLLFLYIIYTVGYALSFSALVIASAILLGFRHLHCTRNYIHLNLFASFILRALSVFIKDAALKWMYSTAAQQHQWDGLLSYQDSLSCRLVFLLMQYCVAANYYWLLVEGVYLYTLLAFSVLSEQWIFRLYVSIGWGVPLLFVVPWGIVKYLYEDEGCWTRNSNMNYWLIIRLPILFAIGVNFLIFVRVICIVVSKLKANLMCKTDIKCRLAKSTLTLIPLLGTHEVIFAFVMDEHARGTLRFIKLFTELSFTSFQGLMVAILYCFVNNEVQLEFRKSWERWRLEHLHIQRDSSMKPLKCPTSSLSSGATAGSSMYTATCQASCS
EC50 (hGLP-1R),EC50 (hGluc-R),EC50 (hGIP-R),SMILES
0.0196 nM,170 nM,170 nM,"CC[C@H](C)[C@H](NC(=O)[C@H](Cc1ccccc1)NC(=O)[C@H](CCC(=O)O)NC(=O)[C@H](CCCCN)NC(=O)[C@H](C)NC(=O)[C@H](C)NC(=O)[C@H](CCC(N)=O)NC(=O)CNC(=O)[C@H](CCC(=O)O)NC(=O)[C@H](CC(C)C)NC(=O)[C@H](Cc1ccc(O)cc1)NC(=O)[C@H](CO)NC(=O)[C@H](CO)NC(=O)[C@@H](NC(=O)[C@H](CC(=O)O)NC(=O)[C@H](CO)NC(=O)[C@@H](NC(=O)[C@H](Cc1ccccc1)NC(=O)[C@@H](NC(=O)CNC(=O)[C@H](CCC(=O)O)NC(=O)C(C)(C)NC(=O)[C@@H](N)Cc1c[nH]cn1)[C@@H](C)O)[C@@H](C)O)C(C)C)C(=O)N[C@@H](C)C(=O)N[C@@](C)(Cc1ccccc1)C(=O)N[C@@H](CC(C)C)C(=O)N[C@H](C(=O)N[C@@H](CCCCN)C(=O)NCC(=O)N[C@@H](CCCNC(=N)N)C(N)=O)C(C)C [SEQ ID NO: 14, H-(Aib)^2-EGT^5 FTSDV^10 SSYLE^15 GQAAK^20 EFIA-(α-MeF)^25 LVKGR^30]"
0.0465 nM,177 nM,177 nM,"CC[C@H](C)[C@H](NC(=O)[C@H](Cc1ccccc1)NC(=O)[C@H](CCC(=O)O)NC(=O)[C@H](CCCCN)NC(=O)[C@H](C)NC(=O)[C@H](C)NC(=O)[C@H](CCC(N)=O)NC(=O)CNC(=O)[C@H](CCC(=O)O)NC(=O)[C@H](CC(C)C)NC(=O)[C@H](Cc1ccc(O)cc1)NC(=O)[C@H](CO)NC(=O)[C@H](CO)NC(=O)[C@@H](NC(=O)[C@H](CC(=O)O)NC(=O)[C@H](CO)NC(=O)[C@@H](NC(=O)[C@H](Cc1ccccc1)NC(=O)[C@@H](NC(=O)CNC(=O)[C@H](CCC(=O)O)NC(=O)C(C)(C)NC(=O)[C@@H](N)Cc1c[nH]cn1)[C@@H](C)O)[C@@H](C)O)C(C)C)C(=O)N[C@@H](C)C(=O)NC(C)(C)C(=O)N[C@@H](CC(C)C)C(=O)N[C@H](C(=O)N[C@@H](CCCCN)C(=O)NCC(=O)N[C@@H](CCCNC(=N)N)C(N)=O)C(C)C [SEQ ID NO: 15, H-(Aib)^2-EGT^5 FTSDV^10 SSYLE^15 GQAAK^20 EFIA-(Aib)^25 LVKGR^30]"
0.0167 nM,110 nM,110 nM,"CC[C@H](C)[C@H](NC(=O)[C@H](Cc1ccccc1)NC(=O)[C@H](CCC(=O)O)NC(=O)[C@](C)(CCCCN)NC(=O)[C@H](C)NC(=O)[C@H](C)NC(=O)[C@H](CCC(N)=O)NC(=O)CNC(=O)[C@H](CCC(=O)O)NC(=O)[C@H](CC(C)C)NC(=O)[C@H](Cc1ccc(O)cc1)NC(=O)[C@H](CO)NC(=O)[C@H](CO)NC(=O)[C@@H](NC(=O)[C@H](CC(=O)O)NC(=O)[C@H](CO)NC(=O)[C@@H](NC(=O)[C@H](Cc1ccccc1)NC(=O)[C@@H](NC(=O)CNC(=O)[C@H](CCC(=O)O)NC(=O)C(C)(C)NC(=O)[C@@H](N)Cc1c[nH]cn1)[C@@H](C)O)[C@@H](C)O)C(C)C)C(=O)N[C@@H](C)C(=O)N[C@@H](Cc1c[nH]c2ccccc12)C(=O)N[C@@H](CC(C)C)C(=O)N[C@H](C(=O)N[C@@H](CCCCN)C(=O)NCC(=O)N[C@@H](CCCNC(=N)N)C(N)=O)C(C)C [SEQ ID NO: 20, H-(Aib)^2-EGT^5 FTSDV^10 SSYLE^15 GQAA-(α-MeK)^20 EFIAW^25 LVKGR^30]"
0.02 nM,76.5 nM,76.5 nM,"CC[C@H](C)[C@H](NC(=O)[C@H](Cc1ccccc1)NC(=O)[C@H](CCC(=O)O)NC(=O)C(C)(C)NC(=O)[C@H](C)NC(=O)[C@H](C)NC(=O)[C@H](CCC(N)=O)NC(=O)CNC(=O)[C@H](CCC(=O)O)NC(=O)[C@H](CC(C)C)NC(=O)[C@H](Cc1ccc(O)cc1)NC(=O)[C@H](CO)NC(=O)[C@H](CO)NC(=O)[C@@H](NC(=O)[C@H](CC(=O)O)NC(=O)[C@H](CO)NC(=O)[C@@H](NC(=O)[C@H](Cc1ccccc1)NC(=O)[C@@H](NC(=O)CNC(=O)[C@H](CCC(=O)O)NC(=O)C(C)(C)NC(=O)[C@@H](N)Cc1c[nH]cn1)[C@@H](C)O)[C@@H](C)O)C(C)C)C(=O)N[C@@H](C)C(=O)N[C@@H](Cc1c[nH]c2ccccc12)C(=O)N[C@@H](CC(C)C)C(=O)N[C@H](C(=O)N[C@@H](CCCCN)C(=O)NCC(=O)N[C@@H](CCCNC(=N)N)C(N)=O)C(C)C [SEQ ID NO: 21, H-(Aib)^2-EGT^5 FTSDV^10 SSYLE^15 GQAA-(Aib)^26 EFIAW^25 LVKGR^30]"
